Measurements: patent EP1100821B1, “ANTI-INFLAMMATORY COMPOUNDS DERIVED FROM LIPOCORTIN-1” (priority 1998, dated 2006)
No end group written: not given here.

Experiments:
A549 cell line = conditions: in vitro A549 model; previous publications (Croxtall et al., 1993, 1998); cited from earlier work
PMN migration = assay type: in vivo; conditions: peptide s.c. 30 min prior to 1 mg zymosan into 6-day-old air-pouches; PMN counted 4 h after zymosan; n=15; P<0.01
Description: Male Swiss Albino mice (20-22 g body weight) were purchased from Interfauna (CFLP strain; Huntingdon, Cambridgeshire, UK) and maintained on a standard chow pellet diet with tap water ad libitum. Animals were used at least one week after arrival.
Air-pouches were formed on the back of the mice by subcutaneous (s.c.) injection of 2.5 ml of air on day 2 and day 5. Three days after the last air-injection (6-day-old air-pouches) 1 mg of zymosan (in 0.5 ml of sterile saline) was injected locally (Perretti et al., 1996). Zymosan was previously boiled for 30 min in phosphate buffered solution (PBS), extensively washed in the same medium and stored at -20°C prior to use.
Four hours after the local injection of zymosan, mice were killed by CO2 exposure and the air-pouches washed with 2 ml of PBS containing ethylenediaminetetracetic acid sodium salt (EDTA; 3 mM) and heparin (25 U/ml). […] The number of PMN was determined, using a Neubauer haematocytometer, after staining (1:10 dilution) with Turk's solution (crystal violet 0.01 % w/v in acetic acid 3% v/v).
Control mice were treated with sterile PBS (100 µl s.c.).

Substance	inhibitory effect on A549 cell function (A549 cell line)	Approximate ED50s (inhibition of PMN migration) (PMN migration) [nmol]
EQEYVQTV [LC118-25]	significant inhibitory activity	–
LC11-12: lipocortin 1 N-terminal fragment, residues 1-12, from previous publications (MAMVSEFLKQAW; UniProt P04083 1-12, looked up, fragment)	inactive	–
Ac-AMVSEFLKQAW [LC12-12, Ac-AMVSEFLKQAW]	–	~110
